Results on seven compounds are retold here after PubChem BioAssay (NCI).

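Following 48 hours of exposure in 96-well plates, responses at five concentrations were used to interpolate endpoints linearly. The concentration for 50% growth inhibition is given as GI50. TGI marks complete inhibition of growth.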

Some test systems named below: SF-295 CNS; IGROV1 ovarian; NCI/ADR-RES ovarian; EKVX NSCLC; OVCAR-5 ovarian; OVCAR-8 ovarian; PC-3 prostate; SK-OV-3 ovarian; OVCAR-3 ovarian; NCI-H522 lung.
Holding throughout (assay): NCI tumour cell line growth inhibition, 48 h

As for `Cc1cc(C)c(NC(=O)c2sc3nc4c(cc3c2N)C(=O)CCC4)c(C)c1`, the GI50 was 0.755 µM in the assay on SF-295 CNS; 5.58 µM with IGROV1 ovarian; 2.08 µM in the assay on NCI/ADR-RES ovarian; 4.28 µM in the assay on EKVX NSCLC; 7.98 µM in the assay with OVCAR-5 ovarian; 5.88 µM with OVCAR-8 ovarian. Besides, the GI50 in the assay with PC-3 prostate is 1.96 µM; in the assay on SK-OV-3 ovarian it was 2.07 µM; in the assay on OVCAR-3 ovarian, 2.46 µM; in the assay with NCI-H522 lung, 0.6 µM. In addition, the TGI with SF-295 CNS was above 100 µM; in the assay with IGROV1 ovarian, above 100 µM; in the assay with NCI/ADR-RES ovarian, 6.45 µM; in the assay with EKVX NSCLC, above 100 µM; with OVCAR-5 ovarian, above 100 µM; in the assay on OVCAR-8 ovarian, above 100 µM. Also, the TGI with PC-3 prostate was above 100 µM; with SK-OV-3 ovarian it was above 100 µM; in the assay with OVCAR-3 ovarian, 8.62 µM; with NCI-H522 lung, 3.06 µM.

Consider `COc1ccc(-c2[nH]c3ccc(OC)cc3c2/C=C(\C#N)S(=O)(=O)c2ccccc2)cc1`, for which the GI50 in the assay on SF-295 CNS is 0.709 µM; in the assay with IGROV1 ovarian it was 3.76 µM; in the assay on NCI/ADR-RES ovarian, 0.479 µM; with EKVX NSCLC it was 3.21 µM; in the assay with OVCAR-5 ovarian it was 3.85 µM; in the assay on OVCAR-8 ovarian, 2.97 µM. In addition, the GI50 in the assay on PC-3 prostate is 0.533 µM; with SK-OV-3 ovarian, 0.963 µM; in the assay with OVCAR-3 ovarian, 0.356 µM; in the assay on NCI-H522 lung it was 1.58 µM. Moreover, the TGI with SF-295 CNS is above 23.9 µM; in the assay with IGROV1 ovarian, above 45.9 µM; in the assay on NCI/ADR-RES ovarian, 9.22 µM; in the assay with EKVX NSCLC, above 100 µM; with OVCAR-5 ovarian, above 100 µM; in the assay with OVCAR-8 ovarian, above 35.2 µM. Besides, the TGI was 23.6 µM in the assay on PC-3 prostate, above 65.9 µM in the assay on SK-OV-3 ovarian, 1.62 µM with OVCAR-3 ovarian and above 20.7 µM in the assay on NCI-H522 lung.

Take `c1ccc(Sc2ccc(Cc3nc4cc5ccccc5cc4[nH]3)cc2)cc1`: the GI50 in the assay with SF-295 CNS is 2.65 µM; in the assay with IGROV1 ovarian, 27.1 µM; with NCI/ADR-RES ovarian, 15.5 µM; in the assay on EKVX NSCLC it was 12.5 µM; in the assay with OVCAR-5 ovarian it was 17.9 µM; with OVCAR-8 ovarian, 7.46 µM. For the same compound, the GI50 with PC-3 prostate is 4.56 µM; in the assay on SK-OV-3 ovarian, 3.27 µM; in the assay with OVCAR-3 ovarian, 8.34 µM; in the assay with NCI-H522 lung, 9.69 µM. Moreover, the TGI was 34.7 µM with SF-295 CNS; above 100 µM in the assay on IGROV1 ovarian; above 62.7 µM in the assay with NCI/ADR-RES ovarian; above 100 µM in the assay on EKVX NSCLC; 98.8 µM in the assay with OVCAR-5 ovarian; above 92.1 µM in the assay on OVCAR-8 ovarian. Also, the TGI was above 64.3 µM in the assay on PC-3 prostate, above 24.8 µM in the assay on SK-OV-3 ovarian, 39.8 µM with OVCAR-3 ovarian and above 62.9 µM with NCI-H522 lung.

In the case of `COc1ccc(-c2nc3ccccn3c2/C=C/C(=O)c2cc(OC)c(OC)c(OC)c2)cc1OC`, the GI50 was 1.85 µM with SF-295 CNS; 3.03 µM in the assay on IGROV1 ovarian; 2.18 µM with NCI/ADR-RES ovarian; 1.71 µM in the assay on EKVX NSCLC; 7.38 µM in the assay with OVCAR-5 ovarian; 2.83 µM with OVCAR-8 ovarian. Further, the GI50 in the assay on PC-3 prostate is 3.71 µM; in the assay with SK-OV-3 ovarian, 4.92 µM; with OVCAR-3 ovarian it was 2.47 µM; in the assay on NCI-H522 lung, 2.74 µM. The TGI in the assay on SF-295 CNS was 4.42 µM; in the assay with IGROV1 ovarian, 12.1 µM; in the assay with NCI/ADR-RES ovarian it was 8.04 µM; in the assay on EKVX NSCLC, above 100 µM; with OVCAR-5 ovarian, 53.3 µM; in the assay with OVCAR-8 ovarian it was 11.1 µM. Besides, the TGI was above 100 µM in the assay with PC-3 prostate, above 100 µM with SK-OV-3 ovarian, 8.56 µM with OVCAR-3 ovarian and 35.5 µM in the assay on NCI-H522 lung.

In the case of `COc1ccc(C[N+](C)(C)N)cc1OC`, the GI50 in the assay on SF-295 CNS, in the assay on NCI/ADR-RES ovarian, in the assay on OVCAR-5 ovarian, in the assay on OVCAR-8 ovarian, in the assay on PC-3 prostate and in the assay on SK-OV-3 ovarian was above 100 µM each time. For the same compound, the GI50 with OVCAR-3 ovarian and in the assay on NCI-H522 lung was above 100 µM in each case. For the same compound, the TGI in the assay with SF-295 CNS, with IGROV1 ovarian, in the assay on NCI/ADR-RES ovarian, in the assay with EKVX NSCLC, in the assay with OVCAR-5 ovarian and in the assay with OVCAR-8 ovarian was above 100 µM in each case. Also, the TGI with PC-3 prostate, with SK-OV-3 ovarian, in the assay on OVCAR-3 ovarian and in the assay on NCI-H522 lung was above 100 µM in each case.

As for `CCNCCNc1cc(-c2ccc(C(F)(F)F)cc2)c(C#N)c2nc3ccccc3n12`, the GI50 is 1.83 µM in the assay on SF-295 CNS; 1.45 µM with IGROV1 ovarian; 1.52 µM in the assay with NCI/ADR-RES ovarian; 1.62 µM in the assay on EKVX NSCLC; 1.94 µM in the assay with OVCAR-5 ovarian; 1.75 µM in the assay on OVCAR-8 ovarian. In addition, the GI50 in the assay with PC-3 prostate is 1.54 µM; with SK-OV-3 ovarian, 1.66 µM; with OVCAR-3 ovarian, 0.306 µM; in the assay with NCI-H522 lung, 1.82 µM. For the same compound, the TGI with SF-295 CNS stood at 3.34 µM; with IGROV1 ovarian it was 2.99 µM; in the assay on NCI/ADR-RES ovarian it was 2.98 µM; in the assay with EKVX NSCLC, 3.07 µM; with OVCAR-5 ovarian, 3.52 µM; in the assay with OVCAR-8 ovarian, 3.6 µM. For the same compound, the TGI is 2.95 µM with PC-3 prostate, 3.17 µM in the assay with SK-OV-3 ovarian, 1 µM in the assay on OVCAR-3 ovarian and 3.66 µM with NCI-H522 lung.

Consider `C=C(C)[C@@H]1CC[C@]2(CO)CC[C@]3(C)[C@H](CC[C@@H]4[C@@]5(C)C=C(C#N)C(=O)C(C)(C)[C@@H]5CC[C@]43C)[C@@H]12`, for which the GI50 in the assay on SF-295 CNS was 1.73 µM; with IGROV1 ovarian, 0.684 µM; with NCI/ADR-RES ovarian, 1.81 µM; in the assay with EKVX NSCLC, 1.63 µM; in the assay on OVCAR-5 ovarian, 2.13 µM; in the assay on OVCAR-8 ovarian, 1.88 µM. Moreover, the GI50 in the assay with PC-3 prostate is 1.57 µM; in the assay with SK-OV-3 ovarian, 2.72 µM; in the assay with OVCAR-3 ovarian it was 1.27 µM; in the assay with NCI-H522 lung, 1.9 µM. Besides, the TGI in the assay on SF-295 CNS came out at 3.96 µM; in the assay on IGROV1 ovarian, 4.65 µM; in the assay on NCI/ADR-RES ovarian, 5.04 µM; in the assay with EKVX NSCLC, 4.61 µM; in the assay on OVCAR-5 ovarian it was 5.75 µM; with OVCAR-8 ovarian, 5.24 µM. The TGI with PC-3 prostate came to 5.42 µM; with SK-OV-3 ovarian, 6.12 µM; with OVCAR-3 ovarian, 2.73 µM; in the assay on NCI-H522 lung, 6.58 µM.
